Test results as given in PMC7865627, “Small Molecule-Based Prodrug Targeting Prostate Specific Membrane Antigen for the Treatment of Prostate Cancer” (Cancers, 2021).
Entries after “also recorded” stand apart in the source; their conditions may differ. Like-named read-outs stand apart in the source and are kept apart here. *1 amine or outer side, *2 acyl side, *3 side chain or, on linkers, in order; H or OH if unused. Where a SMILES comes first, the peptide text is derived from it. Bridges are numbered along the chain shown (N, C = ends). Roman numbers before positions name the chains, in order. [ ]: non-standard residue; d: D form. The star is where a group is joined. Hexanoyl(6-succinimido-3yl) = O=C1CC([*:1])C(=O)N1CCCCCC(=O)[*:2]; Dolaproine = CO[C@@H]([C@@H]1CCCN1)[C@@H](C)C(=O)O; Dil = CC[C@H](C)[C@H](NC)[C@@H](CC(=O)O)OC; γGlu = O=C(O)[C@H](CCC(=O)[*:2])N[*:1]; PABC = O=C(OCc1ccc(N[*:1])cc1)[*:2]; X2 = C[C@@H](N*)[C@@H](O)c1ccccc1; X1 = O=C(C1CCC(CN[*:1])CC1)[*:2]; Cit = NC(=O)NCCC[C@H](N)C(=O)O; NMeV = CN[C@H](C(=O)O)C(C)C; CO = O=C([*:1])[*:2]; Ahx = NCCCCCC(=O)O

Assays:
[1] = tested on: metastatic PC3pip tumor (intracardiac GFP-PC3pip cells); test: Metastatic PC3pip survival study; type: in vivo, mouse; details: 1910 nmol/kg every 4 days, five doses, 90 days, n = 8
Protocol: Male athymic nude mice were injected into the left ventricle of the heart with 1 × 10^5 GFP labeled PC3pip cells to generate bone metastasis. One week later, mice received 1910 nmol/kg of PSMA-1-VcMMAE or PBS every 4 days with a total of five doses and the progression of disease was monitored by GFP imaging. Eight mice were used in each group.

heterotopic C4-2 tumors = test: Heterotopic C4-2 tumor study; type: in vivo, mouse; details: 1910 nmol/kg every 4 days, five doses, 7 animals
Excerpt: To show versatility of the antitumor activity of PSMA-1-VcMMAE, we also tested it in mice bearing heterotopic C4-2 tumors, which are androgen-independent prostate cancer cells endogenously expressing PSMA. […]
drugs through tail vein inject every 4 days with total of 5 injections as indicated by the red arrows.
[…] Values are mean ± SD of 5 animals. The plots stopped when animals died during the experiments since values are represent as mean ± SD of 5 animals.
(nmol/kg) Tumor Growth (nmol/kg) Therapeutic Index *
*: Therapeutic index is defined by MTD/effective dose.
PC3flu tumors. Treatment were scheduled every 4 days with a total of five doses as indicated by the […]
red arrow. […] For tumor growth curves and body weight curves, values are mean ± SD of 5 animals. The plots stopped when animals died during the experiments since values are represent as mean ± SD of 5 animals. (A) Tumor growth curves of mice treated with 955 nmol/kg of PSMA-1-VcMMAE. (B) Comparison of the potency of PSMA-1-VcMMAE to treat PC3pip (solid line) and PC3flu tumors (dashed line) at the dose of 955 nmol/kg. (☀, PC3pip treated versus PC3pip PBS, p = 0.0005; ★, PC3pip treated versus PC3flu PBS, p = 0.0242; ♣, PC3pip treated versus PC3flu treated, p = 0.0493). (C) Body weight changes of mice treated with 955 nmol/kg of PSMA-1-VcMMAE.
Figure 9. PSMA-1-VcMMAE was effective in heterotopic C4-2 tumor model. […]

[2] = In vitro cytotoxicity assay (CCK-8), PC3pip; type: cell-based, human; details: human; for EC50 at 72 h: PC3pip cells
Protocol: Cells (1000/well) were seeded in 96-well culture plates the day before treatment.

orthotopic PC3pip tumors = test: Orthotopic PC3pip survival study; type: in vivo, mouse; details: 3860 nmol/kg (so in the source) i.v. every 4 days, five doses, n = 5
Protocol: Surgical orthotopic tumor implantation was performed as previously reported. Tumor growth/size was monitored using Siemens Acuson S2000 (Siemens AG. Munich, Germany) ultrasound scanner. When the tumors were at the appropriate size (5 mm diameter as measured by ultrasound, approximately 2 weeks) animals were given PSMA-1-VcMMAE, or PBS every 4 days with a total of five doses. Tumors were monitored every other day by ultrasound. Each group utilized five mice.

[3] = tested on: heterotopic PC3pip tumors; test: Heterotopic PC3pip tumor survival study; type: in vivo
Protocol: Male athymic nude mice were implanted subcutaneously with 1 × 10^6 of PC3pip cells 100 μL of matrigel. When tumor size reached approximately 100 mm^3 (tumor volume = Length × width^2/2), mice received drugs through tail vein injection every 4 days with a total of five doses. Mice were treated every 4 days with a total of five doses. Animals were weighed and tumor size measured every other day for 90 days. Cures were defined as no tumor present at end of the 90-day study. When tumors became too large or animals were moribund they were euthanized. Five mice were used in each group.

human liver cathepsin B = biological target: T1, human liver cathepsin B (Homo sapiens, UniProt P07858); test: Enzymatic cleavage by cathepsin B, HPLC analysis; type: in vitro ADME; details: activated human liver cathepsin B, 2 μM conjugate, 37 °C, triplicate
T1 construct: purchased Anthens Research and Technology, Anthens, AL, USA (so in the source); host or cells: human liver (tissue-derived enzyme)
Protocol: (§1) Cathepsin is a prevalent protease that PSMA internalized ligands will encounter as they enter into late endosomes/lysosomes. To investigate if PSMA-targeted drug conjugates were cleavable by cathepsin B, the two conjugates were incubated with or without cathepsin protease and chromatographed by high performance liquid chromatography (HPLC).
(§2) At different time intervals, 40 μL of the solution was taken out into tubes loaded with 1 μL of 1 mM E64 protease inhibitor. […] Studies were performed in triplicate.

[4] = Stability on incubation in PBS (without cathepsin), HPLC; type: in vitro ADME; details: incubation with PBS without cathepsin, triplicate
Protocol: as §1, §2

PSMA = biological target: T2, PSMA (Homo sapiens, UniProt Q04609); test: Competitive binding assay against 3H-ZJ24 on PC3pip cells
T2 construct: expressed in transfected cells; host or cells: PC3pip cells (PC3 retrovirally transfected with PSMA), from Dr. Michel Sadelain, MSKCC
Protocol: The assay was carried as previously reported by incubation PC3pip cells with different concentrations of drug conjugates in the presence of 10 nM N-[N-[(S)-1,3-dicarboxypropyl]carbamoyl]-S-[^3H]-methyl-L-cysteine (^3H-ZJ24) (GE Healthcare Life Sciences, Chicago, IL, USA). Radioactivity of cell pellet was counted by scintillation counter. The concentration required to inhibit 50% of binding was determined (IC50) by GraphPad Prism 3.0.

[5] = 3820 nmol/kg i.v. every 4 days, five doses, n = 5

T2 sequence (Q04609 whole entry): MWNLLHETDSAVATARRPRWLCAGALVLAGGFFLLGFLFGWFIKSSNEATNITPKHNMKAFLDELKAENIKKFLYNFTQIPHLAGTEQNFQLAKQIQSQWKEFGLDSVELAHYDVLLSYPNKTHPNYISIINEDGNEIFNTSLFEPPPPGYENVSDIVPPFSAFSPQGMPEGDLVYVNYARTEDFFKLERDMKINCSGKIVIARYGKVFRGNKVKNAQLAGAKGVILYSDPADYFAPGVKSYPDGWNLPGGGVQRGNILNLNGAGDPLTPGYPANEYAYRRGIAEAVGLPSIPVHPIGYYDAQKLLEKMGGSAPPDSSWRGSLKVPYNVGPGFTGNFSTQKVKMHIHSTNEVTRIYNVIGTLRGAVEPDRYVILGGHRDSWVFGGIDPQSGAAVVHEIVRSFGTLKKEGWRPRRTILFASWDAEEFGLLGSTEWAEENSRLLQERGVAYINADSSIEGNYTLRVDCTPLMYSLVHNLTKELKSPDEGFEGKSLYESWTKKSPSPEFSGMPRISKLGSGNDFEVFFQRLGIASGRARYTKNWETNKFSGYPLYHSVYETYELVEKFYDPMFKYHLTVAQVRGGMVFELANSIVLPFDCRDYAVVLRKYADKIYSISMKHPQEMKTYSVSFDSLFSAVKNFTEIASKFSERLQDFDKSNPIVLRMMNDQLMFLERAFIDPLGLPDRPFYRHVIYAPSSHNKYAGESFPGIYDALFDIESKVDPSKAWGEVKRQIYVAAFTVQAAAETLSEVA

CC[C@H](C)[C@@H]([C@@H](CC(=O)N1CCC[C@H]1[C@H](OC)[C@@H](C)C(=O)N[C@H](C)[C@@H](O)c1ccccc1)OC)N(C)C(=O)[C@@H](NC(=O)[C@H](C(C)C)N(C)C(=O)OCc1ccc(NC(=O)[C@H](CCCNC(N)=O)NC(=O)[C@@H](NC(=O)CCCCCN2C(=O)CC(SC[C@H](NC(=O)[C@@H](CCC(=O)O)NC(=O)[C@@H](CCC(=O)O)NC(=O)[C@@H](CCC(=O)O)NC(=O)CCCCCNC(=O)C3CCC(CNC(=O)CC[C@H](NC(=O)N[C@@H](CCC(=O)O)C(=O)O)C(=O)O)CC3)C(=O)NCCCCCC(=O)N[C@@H](CCCCN)C(N)=O)C2=O)C(C)C)cc1)C(C)C (some centres unmarked) [PSMA-1-VcMMAE] (I: {Glu-CO-γGlu}-[X1][Ahx][dE][dE][dE]C[Ahx]K-NH2 / II: V[Cit][PABC][NMeV]V[Dil][Dolaproine]-X2; linker I:6-II:N via Hexanoyl(6-succinimido-3yl))
cures, metastatic PC3pip [1]: six out of eight
cure rate, metastatic PC3pip ([1]; started 1 week after cardiac injection): 75%
cures, C4-2 tumors (heterotopic C4-2 tumors): 2 / 7
selectivity ratio at 72 h ([2]; PC3pip and PC3flu cells, more potent for PC3pip than PC3flu, read-out: selectivity, differential cytotoxicity ratio between PC3pip and PC3flu cells): 48
EC50 at 72 h ([2]; 72 h, CCK-8, in the presence of 10 μM of PSMA-1, read-out: EC50, cytotoxicity to PC3pip cells + PSMA-1): 241 ± 8.6 nM
EC50 at 72 h ([2]; 72 h, CCK-8, in the presence of protease inhibitor E64 (50 μM given for the Cy5.5 conjugates), read-out: EC50, cytotoxicity to PC3pip cells + E64): 31.1 ± 2.11 nM
EC50 at 72 h ([2]; 72 h incubation, CCK-8, mean ± SD, read-out: EC50, cytotoxicity to PC3pip cells): 4.64 ± 0.83 nM
tumor free mice, orthotopic PC3pip, 3860 nmol/kg (orthotopic PC3pip tumors): one
tumor growth (in words), 191 nmol/kg ([3]; 191 nmol/kg i.v. every 4 days, five doses, n = 5): significant tumor inhibition
cures, 955 nmol/kg ([3]; 955 nmol/kg i.v. every 4 days, five doses, n = 5): 2/5
histology (H&E) of major organs (in words) ([3]; 3820 nmol/kg every 4 days, five injections, day 21): no noticeable histological changes; also recorded: no histological damage in salivary gland
cure rate, 3820 nmol/kg [3, 5]: 60%
cures (tumor-free mice at 90 days), 3820 nmol/kg [3, 5]: three out of five
survival over 90-day experimental time, 3820 nmol/kg [3, 5]: all five mice survived
therapeutic index ([3]; MTD/effective dose): 20
lowest dose to effectively inhibit tumor growth ([3]; i.v. every 4 days, five doses, tumor growth inhibited for 30 days, n = 5): 382 nmol/kg
body weight (in words) ([3]; up to 3820 nmol/kg i.v. every 4 days, five doses): No body weight loss
cleavage by cathepsin B (in words) (human liver cathepsin B): release of free MMAE
stability in PBS (in words) [4]: stable
IC50 (PSMA): 4.34 nM
